Experimental data published in patent US20210032633A1, “DRUG FOR CHRONIC INFLAMMATORY DISEASE AND METHOD FOR EVALUATING SUSCEPTIBILITY TO CHRONIC INFLAMMATORY DISEASE” (National University Corporation Hokkaido University, priority 2018, published 2021).

Experiments:
NEDD4 SP3 mRNA = assay: Knockdown efficiency: NEDD4 SP3 mRNA expression by qPCR in siRNA-transfected H4 cells; assay type: cell-based, human; conditions: under TNF-α stimulation, relative to GAPDH, remaining expression vs si-control
Method: (§1) siRNA (GCAAGACAAGAGAUGAUUUtt (SEQ ID No. 23), Ambion Silencer Select siRNA, Thermo Fisher Scientific) against NEDD4 SP3, and control siRNA (Ambion Silencer Select siRNA, Thermo Fisher Scientific) were transfected into a human glioma cell line (H4 cells) using Lipofectamine RNAiMAX (Thermo Fisher Scientific), and NEDD4 SP3 knockdown cells were constructed. After stimulating the control cells and the knockdown cells with IL-6 +TNFa, the IL-6 mRNA expression was measured by qPCR (primer sequence: […] (SEQ ID No. 24) and […] (SEQ ID No.25)). Moreover, the knockdown efficiency was confirmed using the NEDD4 SP3 expression as an index. The expression level indicates the relative amount with respect to the housekeeping gene GAPDH (primer sequence: […] (SEQ ID No.26) and CGCTCCTGGAAGATGGTG (SEQ ID No.27)).

[1] = system: IL-6 mRNA expression in H4 cells; assay: IL-6 mRNA expression by qPCR in H4 cells stimulated with IL-6 + TNFa (inflammation amplifier); assay type: cell-based, human; conditions: under IL-6 and TNF-α stimulation, relative to GAPDH, remaining expression vs si-control
Method: as §1

“GCAAGACAAGAGAUGAUUUtt (SEQ ID No. 23) (GCAAGACAAGAGAUGAUUUTT; chemistry not given here) [NEDD4 si-SP3, siRNA against NEDD4 SP3, Ambion Silencer Select siRNA, Thermo Fisher Scientific]” was tested, and the “NEDD4 SP3 mRNA expression level compared to H4 cells introduced with si-control” value (NEDD4 SP3 mRNA) was 4.2% and the “IL-6 mRNA expression level compared to H4 cells introduced with si-control” value [1] was 41.0%.
